Data as given in US10941132B2, “Pyrazole derivatives” (HUA MEDICINE (SHANGHAI) Ltd., priority 2016, dated 2021).
pIC50: −log10 of the molar value. Read-outs that look alike come from different tables or passages of the source.

Target: T1, recombinant rat mGluR5 (Rattus norvegicus, UniProt P31424)
T1 construct: expressed in transfected cells
Test: Functional calcium flux assay (FLIPR), antagonist evaluation against glutamate-evoked [Ca2+]i increase
Format: cell-based
Settings: HEK293 cells stably expressing recombinant rat mGluR5, 15 min incubation of test compound, then submaximal glutamate
Experimental: Functional Calcium Clux Assay Methodology
For functional assays, HEK293 cells stably expressing recombinant rat mGluR5 were seeded in 384-well plates and dye loaded using Fluo-8. Cells were then washed to remove the un-incorporated dye. Antagonist evaluation was performed following a 15 min incubation of the test compound followed by the addition of submaximal concentration of glutamate. Intracellular calcium ([Ca^2+]i) measurements were performed using a fluorometric imaging plate reader (FLIPR, Molecular Devices). The glutamate-evoked increase in [Ca^2′]i in the presence of the test compounds was compared to the response to glutamate alone (the positive control). Antagonist inhibition curves were fitted with a 4-parameter logistic equation giving IC50 values, and Hill coefficients using an iterative nonlinear curve fitting algorithm.
The tables below provide IC50 data in this assay. In the activity column, A=IC50>1,000 and ≤5,000 nM; B=IC50>500 and ≤1,000 nM and C=IC50≤500 nM.

[1] = Table 1, read-out: IC50 value (FLIPR assay)
[2] = Table 2, read-out: IC50 (FLIPR assay)

T1 sequence (P31424 21-1203): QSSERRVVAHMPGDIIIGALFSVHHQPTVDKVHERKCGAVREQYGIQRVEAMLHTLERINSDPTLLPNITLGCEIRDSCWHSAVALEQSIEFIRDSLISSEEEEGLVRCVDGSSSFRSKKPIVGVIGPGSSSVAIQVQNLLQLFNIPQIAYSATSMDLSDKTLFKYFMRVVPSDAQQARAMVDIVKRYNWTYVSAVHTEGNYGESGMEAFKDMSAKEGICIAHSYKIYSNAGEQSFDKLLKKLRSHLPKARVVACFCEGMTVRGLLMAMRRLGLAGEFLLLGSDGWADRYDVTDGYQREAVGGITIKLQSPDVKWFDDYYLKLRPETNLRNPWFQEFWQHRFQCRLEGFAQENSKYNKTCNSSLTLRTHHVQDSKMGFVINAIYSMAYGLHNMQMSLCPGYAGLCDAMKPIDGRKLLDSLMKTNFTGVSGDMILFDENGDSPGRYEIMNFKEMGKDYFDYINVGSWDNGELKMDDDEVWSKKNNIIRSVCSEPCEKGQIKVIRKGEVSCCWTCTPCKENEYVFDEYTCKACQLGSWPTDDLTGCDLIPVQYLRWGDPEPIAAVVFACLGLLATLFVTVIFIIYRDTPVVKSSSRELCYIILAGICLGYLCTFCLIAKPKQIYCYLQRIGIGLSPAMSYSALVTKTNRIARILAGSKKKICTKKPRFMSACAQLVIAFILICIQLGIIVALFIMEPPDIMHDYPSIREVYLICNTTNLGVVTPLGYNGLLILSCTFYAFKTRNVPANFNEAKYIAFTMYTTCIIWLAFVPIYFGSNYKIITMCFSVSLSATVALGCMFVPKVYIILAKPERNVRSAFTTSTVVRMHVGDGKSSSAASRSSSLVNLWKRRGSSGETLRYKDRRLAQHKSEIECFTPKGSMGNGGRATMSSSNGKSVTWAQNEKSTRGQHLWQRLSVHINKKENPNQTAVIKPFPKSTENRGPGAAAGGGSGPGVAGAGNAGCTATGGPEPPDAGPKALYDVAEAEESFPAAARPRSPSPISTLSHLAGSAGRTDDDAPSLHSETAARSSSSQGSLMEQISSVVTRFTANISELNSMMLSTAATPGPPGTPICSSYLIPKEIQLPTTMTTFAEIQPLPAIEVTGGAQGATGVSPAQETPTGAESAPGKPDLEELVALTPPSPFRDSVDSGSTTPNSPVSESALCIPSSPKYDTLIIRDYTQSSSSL

Row | SMILES | pIC50 [1] | pIC50 [2]
1 | Fc1ccc(-n2cc(C#Cc3ccccn3)cn2)cn1 [Compound 23] | ≥ 6.30 | –
2 | Cc1cc(C#Cc2cnccn2)nn1-c1ccc(OC(F)(F)F)cc1 [Compound 134, 2-((5-methyl-1-(4-(trifluoromethoxy)phenyl)-H-pyrazol-3-yl)ethynyl)pyrazine] | – | 5.30 to 6.00
3 | N#Cc1cc(F)cc(-n2cc(Cl)c(C#Cc3ccccn3)n2)c1 [Compound 61, 3-(4-chloro-3-(pyridin-2-ylethynyl)-1H-pyrazol-1-yl)-5-fluorobenzonitrile] | – | ≥ 6.30
4 | Fc1ccc(-n2ccc(C#Cc3ccccn3)n2)cc1 [Compound 112, 2-((1-(4-fluorophenyl)-1H-pyrazol-3-yl)ethynyl)pyridine] | – | ≥ 6.30
5 | Fc1ccc(-n2ncc(C#Cc3ncccn3)c2Cl)cc1 [Compound 17] | ≥ 6.30 | –
6 | Fc1ccc(-n2ccc(C#Cc3ncccn3)n2)cc1 [Compound 117, 2-((1-(4-fluorophenyl)-1H-pyrazol-3-yl)ethynyl)pyrimidine] | – | 6.00 to 6.30
7 | Fc1ccc(-n2cc(C#Cc3ccccn3)c(Cl)n2)cc1 [Compound 42, 2-((3-chloro-1-(4-fluorophenyl)-1H-pyrazol-4-yl)ethynyl)pyridine] | ≥ 6.30 | –
8 | FC(F)(F)Oc1ccc(-n2ccc(C#Cc3cccc(Cl)c3)n2)cc1 [Compound 122, 3-((3-chlorophenyl)ethynyl)-1-(4-(trifluoromethoxy)phenyl)-1H-pyrazole] | – | 5.30 to 6.00
9 | Fc1ccc(-n2ccc(C#Cc3ccccn3)n2)nc1 [Compound 67, 5-fluoro-2-(3-(pyridin-2-ylethynyl)-1H-pyrazol-1-yl)pyridine] | – | ≥ 6.30
10 | N#Cc1cc(F)cc(-n2ccc(C#Cc3ccccn3)n2)c1 [Compound 105, 3-fluoro-5-(3-(pyridin-2-ylethynyl)-1H-pyrazol-1-yl)benzonitrile] | – | ≥ 6.30
11 | Cc1cn(-c2cc(F)cc(C#N)c2)nc1C#Cc1ccccn1 [Compound 59, 3-fluoro-5-(4-methyl-3-(pyridin-2-ylethynyl)-1H-pyrazol-1-yl) benzonitrile] | – | ≥ 6.30
12 | Cc1cc(C#Cc2cccnc2)nn1-c1ccc(F)cc1 [Compound 127, 3-((1-(4-fluorophenyl)-5-methyl-1H-pyrazol-3-yl)ethynyl)pyridine] | – | 5.30 to 6.00
13 | Cc1cc(C#Cc2cccnc2)nn1-c1cc(F)cc(C#N)c1 [Compound 98, 3-fluoro-5-(5-methyl-3-(pyridin-3-ylethynyl)-1H-pyrazol-1-yl) benzonitrile] | – | ≥ 6.30
14 | Fc1ccc(-n2ccc(C#Cc3cccnc3)n2)cc1 [Compound 114, 3-((1-(4-fluorophenyl)-1H-pyrazol-3-yl)ethynyl)pyridine] | – | 5.30 to 6.00
15 | N#Cc1cc(F)cc(-n2cc(C#Cc3ccccn3)c(C3CC3)n2)c1 [Compound 54, 3-(3-cyclopropyl-4-(pyridin-2-ylethynyl)-1H-pyrazol-1-yl)-5-fluorobenzonitrile] | ≥ 6.30 | –
16 | COc1c(C#Cc2ccccn2)c(C)nn1-c1ccc(OC(F)(F)F)cc1 [Compound 10, 2-((3-methyl-5-methoxy-1-(4-(trifluoromethoxy)phenyl)-1H-pyrazol-4-yl)ethynyl) pyridine] | 5.30 to 6.00 | –
17 | Cc1cc(C#Cc2ccccn2)nn1-c1cc(F)cc(C#N)c1 [Compound 97, 3-fluoro-5-(5-methyl-3-(pyridin-2-ylethynyl)-1H-pyrazol-1-yl) benzonitrile] | – | ≥ 6.30
18 | COCCOc1ccc(-n2cc(C#Cc3ccccn3)cn2)cc1 [Compound 26, 2-((1-(4-(2-methoxyethoxy)phenyl)-1H-pyrazol-4-yl)ethynyl) pyridine] | ≥ 6.30 | –
19 | N#Cc1cc(F)cc(-n2ccc(C#Cc3ccccc3)n2)c1 [Compound 104] | – | 5.30 to 6.00
20 | Fc1cncc(-n2cc(C#Cc3ccccn3)cn2)c1 [Compound 33] | ≥ 6.30 | –
21 | Cc1nn(-c2ccc(F)cc2)c(C)c1C#Cc1ccccn1 [Compound 1] | ≥ 6.30 | –
22 | COCCOc1nn(-c2cc(F)cc(C#N)c2)c(C)c1C#Cc1ncccn1 [Compound 30, 3-fluoro-5-(3-(2-methoxyethoxy)-5-methyl-4-(pyrimidin-2-ylethynyl)-1H-pyrazol-1-yl)benzonitrile] | 5.30 to 6.00 | –
23 | Cc1cc(C#Cc2ncccn2)nn1-c1cc(F)cc(C#N)c1 [Compound 101, 3-fluoro-5-(5-methyl-3-(pyrimidin-2-ylethynyl)-H-pyrazol-1-yl) Benzonitrile] | – | ≥ 6.30
24 | Cc1cc(C#Cc2ccccn2)nn1-c1ccc(F)cn1 [Compound 73, 5-fluoro-2-(5-methyl-3-(pyridin-2-ylethynyl)-1H-pyrazol-1-yl)] | – | ≥ 6.30
25 | Cc1nn(-c2ccc(F)cc2)c(C)c1C#Cc1ncccn1 [Compound 2, 2-((1-(4-fluorophenyl)-3,5-dimethyl-1H-pyrazol-4-yl)ethynyl) pyrimidine] | ≥ 6.30 | –

Row | SMILES | pIC50 [1] | pIC50 [2]
26 | FC(F)(F)c1ccc(-n2ncc(C#Cc3ncccn3)c2Cl)cc1 [Compound 36, 2-((5-chloro-1-(4-(trifluoromethyl)phenyl)-1H-pyrazol-4-yl)ethynyl) pyrimidine] | ≥ 6.30 | –
27 | COc1nn(-c2ccc(F)cc2)c(C)c1C#Cc1ccccn1 [Compound 8, 2-((1-(4-fluorophenyl)-3-methoxy-5-methyl-1H-pyrazol-4-yl)ethynyl)pyridine] | ≥ 6.30 | –
28 | COCCOc1nn(-c2ccc(OC(F)(F)F)cc2)cc1C#Cc1ccccn1 [Compound 31, 2-((3-(2-methoxyethoxy)-1-(4-(trifluoromethoxy)phenyl)-1H-pyrazol-4-yl)ethynyl)pyridine] | 5.30 to 6.00 | –
29 | Cc1cc(C#Cc2ccccn2)nn1-c1ccc(OC(F)(F)F)cc1 [Compound 136, 2-((5-methyl-1-(4-(trifluoromethoxy)phenyl)-1H-pyrazol-3-yl)ethynyl)pyridine] | – | ≥ 6.30
30 | Fc1ccc(-n2cc(Cl)c(C#Cc3ccccn3)n2)nc1 [Compound 69, 2-(4-chloro-3-(pyridin-2-ylethynyl)-1H-pyrazol-1-yl)-5-fluoropyridine] | – | 6.00 to 6.30
31 | N#Cc1cc(F)cc(-n2cc(C#Cc3ccncc3)cn2)c1 [Compound 79, 3-fluoro-5-(4-(pyridin-4-ylethynyl)-1H-pyrazol-1-yl)benzonitrile] | ≥ 6.30 | –
32 | Cc1c(C#Cc2ccccn2)c(N(C)C)nn1-c1ccc(OC(F)(F)F)cc1 [Compound 16] | 5.30 to 6.00 | –
33 | Fc1ccc(-n2cc(C#Cc3ccccn3)c(Cl)n2)nc1 [Compound 49, 2-(3-chloro-4-(pyridin-2-ylethynyl)-1H-pyrazol-1-yl)-5-fluoropyridine] | ≥ 6.30 | –
34 | N#Cc1cc(F)cc(-n2cc(C#Cc3cccc(Cl)c3)cn2)c1 [Compound 77, 3-fluoro-5-(4-(3-chloro-phenylethynyl)-1H-pyrazol-1-yl) benzonitrile] | 6.00 to 6.30 | –
35 | Fc1ccc(-n2ncc(C#Cc3ncccn3)c2Cl)cn1 [Compound 19, 2-((5-chloro-1-(6-fluoropyridin-3-yl)-1H-pyrazol-4-yl)ethynyl)pyrimidine] | ≥ 6.30 | –
36 | Cc1nn(-c2ccc(F)cn2)c(C)c1C#Cc1ccccn1 [Compound 25, 2-(3,5-dimethyl-4-(pyridin-2-ylethynyl)-H-pyrazol-1-yl)-5-fluoropyridine] | ≥ 6.30 | –
37 | Cc1cc(C#Cc2ccncc2)nn1-c1ccc(F)cc1 [Compound 130, 4-((1-(4-fluorophenyl)-5-methyl-1H-pyrazol-3-yl)ethynyl) pyridine] | – | ≥ 6.30
38 | FC(F)(F)Oc1ccc(-n2cc(C#Cc3cnccn3)cn2)cc1 [Compound 65, 2-((1-(4-(trifluoromethoxy)phenyl)-1H-pyrazol-4-yl)ethyny)pyrazine] | 5.30 to 6.00 | –
39 | Fc1ccc(-n2ncc(C#Cc3ccccn3)c2Cl)cc1 [Compound 20] | ≥ 6.30 | –
40 | Fc1ccc(-n2ccc(C#Cc3cnccn3)n2)cc1 [Compound 119, 2-((1-(4-fluorophenyl)-H-pyrazol-3-yl)ethynyl)pyrazine] | – | 5.30 to 6.00
41 | N#Cc1cc(F)cc(-n2cc(C#Cc3ccccc3)cn2)c1 [Compound 74, 3-fluoro-5-(4-(phenylethynyl)-H-pyrazol-1-yl)benzonitrile] | 5.30 to 6.00 | –
42 | FC(F)(F)Oc1ccc(-n2ccc(C#Cc3cnccn3)n2)cc1 [Compound 125, 2-((1-(4-(trifluoromethoxy)phenyl)-1H-pyrazol-3-yl)ethynyl) pyrazine] | – | 5.30 to 6.00
43 | FC(F)(F)c1ccc(-n2ncc(C#Cc3ccccn3)c2Cl)cc1 [Compound 35, 2-((5-chloro-1-(4-(trifluoromethyl)phenyl)-1H-pyrazol-4-yl)ethynyl)pyridine] | ≥ 6.30 | –
44 | FC(F)(F)Oc1ccc(-n2ccc(C#Cc3ccncc3)n2)cc1 [Compound 124, 4-((1-(4-(trifluoromethoxy)phenyl)-1H-pyrazol-3-yl)ethynyl) pyridine] | – | 5.30 to 6.00
45 | Fc1ccc(-n2cc(C#Cc3ccnc(Cl)c3)cn2)cc1 [Compound 85, 2-chloro-4-((1-(4-fluorophenyl)-1H-pyrazol-4-yl)ethynyl)pyridine] | ≥ 6.30 | –
46 | FC(F)(F)Oc1ccc(-n2ncc(C#Cc3ncccn3)c2Cl)cc1 [Compound 22] | ≥ 6.30 | –
47 | COCCOc1c(C#Cc2ccccn2)cnn1-c1ccc(F)cc1 [Compound 56] | ≥ 6.30 | –
48 | FC(F)(F)Oc1ccc(-n2ccc(C#Cc3ccccc3)n2)cc1 [Compound 120] | – | 5.30 to 6.00
49 | CS(=O)(=O)c1ccc(-n2cc(C#Cc3ccccn3)c(Cl)n2)cc1 [Compound 58, 2-((3-chloro-1-(4-(methylsulfonyl)phenyl)-1H-pyrazol-4-yl)ethynyl)pyridine] | 5.30 to 6.00 | –
